{
  "source": "patent US9938230B2",
  "about": "“Esters or salts of 2-hydroxy-4-propylcyclohepta-2,4,6-trienone and application thereof in preparation of animal antibacterial agents and growth promoters used in feed” (GUANGZHOU INSIGHTER BIOTECHNOLOGY CO., LTD., priority 2014, dated 2018)",
  "key": {"[1]": {"assay": "Thermal stability test of different metal salts, 2% premix with corncob powder at 100° C., HPLC", "format": "physicochemical", "details": "for Residual content at 100° C. for 20 h (%) / Residual content at 100° C. for 40 h (%): 2% premix; for Initial content (%): 2% premix with corncob powder, before heating; for Residual content at 100° C. for 20 h (%) / Residual content at 100° C. for 40 h (%) / thermal stability (in words): 100° C.; for thermal stability (in words): compared with IST-009-001", "method": "(§1) Each of the metal salts of 2-hydroxy-4-propylcyclohepta-2,4,6-trienone prepared in Embodiments 2-6 was mixed with corncob powder to obtain a premix with a mass fraction of 2%. Samples (the premix) were placed in crucibles and spread, and then placed in oven at 100° C. for different durations. Then 1.0 g of each of the samples (three duplicate samples from each sample) and 50 ml of ethanol were added into a conical flask, subjected to sonication for 10 min, and then filtrated through filter paper. The filtrate was transferred into a 50 ml volumetric flask, topped up to the final volume with ethanol, and then filtered with a 0.45 μm microporous membrane and subjected to HPLC analysis.\n(§2) Chromatographic Parameters\n(§3) Column: Wondasil C18 (250 mm×4.6 mm, 5 μm);\nMobile phase: methanol/40 mM ammonium acetate (65:35, v/v; pH 4):\n(§4) Detection Wavelength: 220 nm;\n(§5) Column Temperature: 25° C.;\n(§6) Flow Rate: 0.8 or 1.0 ml/min."}, "[2]": {"assay": "Optical stability test of different metal salts, 2% premix, illumination at 4500-5000 lux for 5 days, HPLC", "format": "physicochemical", "details": "for Residual content of 5 days later (%): 2% premix; for Initial content (%): 2% premix with corncob powder, before illumination", "method": "Samples (the premixes) were spread in a stability test chamber and subjected to illumination at 4500-5000 lux for 5 days. Then 1.0 g of each of the samples (three duplicate samples from each sample) and 50 ml of ethanol were added into a conical flask, subjected to sonication for 10 min, and then filtrated through filter paper. The filtrate was transferred into a 50 ml volumetric flask, topped up to the final volume with ethanol, and then filtered with a 0.45 μm microporous membrane and subjected to HPLC analysis. Column: WondasilC18 (250 mm×4.6 mm, 5 μm); Mobile Phase: methanol/40 mM ammonium acetate (65:35, v/v; pH 4): Detection Wavelength: 220 nm; Column Temperature: 25° C.; […] Flow Rate: 0.8 or 1.0 ml/min."}, "[3]": {"system": "yellow feather broilers (female)", "assay": "Application in broiler feeds, 30 days test period, weight gain and feed conversion", "format": "in vivo", "details": "for Average daily weight gain / Average weight gain / Feed conversion efficiency / Consumption: 30 days; for Consumption: group of 100 broilers", "source_text": "500 1-day-aged, healthy, fast-grown yellow feather broilers (female) in the same growing state and similar in weight were randomly divided into five groups according to table 4, 100 broilers in each group. Broilers of each group were fed with different dosages of magnesium 7-oxo-3-propylcyclohepta-1,3,5-trienolate or 2-hydroxy-4-propylcyclohepta-2,4,6-trienone."}, "[4]": {"assay": "Thermal stability test of 7-oxo-3-propylcyclohepta-1,3,5-trien-1-yl stearate, 2% premix with corncob powder in oven, HPLC", "format": "physicochemical", "method": "as §1, with “The” for “Each of the metal salts of 2-hydroxy-4-propylcyclohepta-2,4,6-trienone”, “7-oxo-3-propylcyclohepta-1,3,5-trien-1-yl stearate (IST-009-050)” for “in Embodiments 2-6”, “60°” for “100°”, “C. or eat” for “C.”\nas §2, §3\nMobile Phase: acetonitrile (100%);\nas §4, §5, §6"}, "[5]": {"details": "2.5 ppm mixed with feed, broilers"}, "[6]": {"details": "5.0 ppm mixed with feed, broilers"}},
  "data": [
    {"smiles": "CCCc1cccc(=O)c(O)c1", "note": "[Calcium 7-oxo-3-propylcyclohepta-1,3,5-trienolate]", "values": [
      {"measurement": "Residual content at 100° C. for 20 h (%)", "setting": "[1]", "result": 1.73, "unit": "%"},
      {"measurement": "Residual content at 100° C. for 40 h (%)", "setting": "[1]", "result": 1.67, "unit": "%"},
      {"measurement": "Residual content of 5 days later (%)", "setting": "[2]; 4500-5000 lux, 5 days", "result": 0.89, "unit": "%"}
    ]},
    {"smiles": "CCCc1cccc(=O)c(O)c1", "note": "[IST-009-001, 2-hydroxy-4-propylcyclohepta-2,4,6-trienone]", "values": [
      {"measurement": "Initial content (%)", "setting": "[1]", "result": 2.0, "unit": "%"},
      {"measurement": "Residual content at 100° C. for 20 h (%)", "setting": "[1]", "result": 0, "unit": "%"},
      {"measurement": "Residual content at 100° C. for 40 h (%)", "setting": "[1]", "result": 0, "unit": "%"},
      {"measurement": "Initial content (%)", "setting": "[2]", "result": 2.0, "unit": "%"},
      {"measurement": "Residual content of 5 days later (%)", "setting": "[2]; 4500-5000 lux, 5 days", "result": 0, "unit": "%"},
      {"measurement": "Average daily weight gain", "setting": "[3]; [5]", "result": 26.1, "unit": "g"},
      {"measurement": "Average weight gain", "setting": "[3]; [5]", "result": 783, "unit": "g"},
      {"measurement": "Feed conversion efficiency", "setting": "[3]; [5]", "result": 1.988},
      {"measurement": "Consumption", "setting": "[3]; 2.5 ppm mixed with feed", "result": 156.66, "unit": "kg"},
      {"measurement": "Average daily weight gain", "setting": "[3]; [6]", "result": 26.8, "unit": "g"},
      {"measurement": "Average weight gain", "setting": "[3]; [6]", "result": 804, "unit": "g"},
      {"measurement": "Feed conversion efficiency", "setting": "[3]; [6]", "result": 1.906},
      {"measurement": "Consumption", "setting": "[3]; 5.0 ppm mixed with feed", "result": 153.24, "unit": "kg"},
      {"measurement": "Content (%)", "setting": "[4]; 2% premix, 80° C., 22 h", "result": 0, "unit": "%"},
      {"measurement": "Content (%)", "setting": "[4]; 2% premix, 80° C., 44 h", "result": 0, "unit": "%"},
      {"measurement": "Content (%)", "setting": "[4]; 2% premix, 80° C., 68 h", "result": 0, "unit": "%"}
    ]},
    {"smiles": "CCCCCCCCCCCCCCCCCC(=O)Oc1cc(CCC)cccc1=O", "note": "[IST-009-050, 7-oxo-3-propylcyclohepta-1,3,5-trien-1-yl stearate]", "values": [
      {"measurement": "Content (%)", "setting": "[4]; 2% premix with corncob powder, before heating (no temperature, no time)", "result": 2.0, "unit": "%"},
      {"measurement": "Content (%)", "setting": "[4]; 2% premix, 60° C., 22 h", "result": 0.84, "unit": "%"},
      {"measurement": "Content (%)", "setting": "[4]; 2% premix, 60° C., 44 h", "result": 0.35, "unit": "%"},
      {"measurement": "Content (%)", "setting": "[4]; 2% premix, 60° C., 68 h", "result": 0.14, "unit": "%"},
      {"measurement": "Content (%)", "setting": "[4]; 2% premix, 80° C., 22 h", "result": 0.61, "unit": "%"},
      {"measurement": "Content (%)", "setting": "[4]; 2% premix, 80° C., 44 h", "result": 0.03, "unit": "%"},
      {"measurement": "Content (%)", "setting": "[4]; 2% premix, 80° C., 68 h", "result": 0, "unit": "%"},
      {"measurement": "thermal stability (in words)", "setting": "[4]; compared with IST-009-001", "result": "better than the unesterified 2-hydroxy-4-propylcyclohepta-2,4,6-trienone (IST-009-001), but not satisfactory yet"}
    ]},
    {"smiles": "CCCc1cccc(=O)c(O)c1", "note": "[Magnesium 7-oxo-3-propylcyclohepta-1,3,5-trienolate]", "values": [
      {"measurement": "Residual content at 100° C. for 40 h (%)", "setting": "[1]", "result": 1.99, "unit": "%"},
      {"measurement": "Residual content of 5 days later (%)", "setting": "[2]; 4500-5000 lux, 5 days", "result": 1.52, "unit": "%"},
      {"measurement": "Average daily weight gain", "setting": "[3]; [5]", "result": 26.2, "unit": "g"},
      {"measurement": "Average weight gain", "setting": "[3]; [5]", "result": 785, "unit": "g"},
      {"measurement": "Feed conversion efficiency", "setting": "[3]; [5]", "result": 1.984},
      {"measurement": "Consumption", "setting": "[3]; 2.5 ppm mixed with feed", "result": 155.94, "unit": "kg"},
      {"measurement": "Average daily weight gain", "setting": "[3]; [6]", "result": 26.6, "unit": "g"},
      {"measurement": "Average weight gain", "setting": "[3]; [6]", "result": 798, "unit": "g"},
      {"measurement": "Feed conversion efficiency", "setting": "[3]; [6]", "result": 1.899},
      {"measurement": "Consumption", "setting": "[3]; 5.0 ppm mixed with feed", "result": 151.54, "unit": "kg"},
      {"measurement": "feed conversion efficiency (in words)", "setting": "[3]; broilers, 30 days test period", "result": "significantly improved"},
      {"measurement": "weight gain (in words)", "setting": "[3]; broilers, 30 days test period", "result": "significantly improved"}
    ]},
    {"smiles": "CCCc1cccc(=O)c(O)c1", "note": "[Manganese 7-oxo-3-propylcyclohepta-1,3,5-trienolate]", "values": [
      {"measurement": "Initial content (%)", "setting": "[1]", "result": 2.0, "unit": "%"},
      {"measurement": "Residual content at 100° C. for 20 h (%)", "setting": "[1]", "result": 1.99, "unit": "%"},
      {"measurement": "Residual content at 100° C. for 40 h (%)", "setting": "[1]", "result": 1.98, "unit": "%"},
      {"measurement": "thermal stability (in words)", "setting": "[1]", "result": "highest thermal stability"},
      {"measurement": "Residual content of 5 days later (%)", "setting": "[2]; 4500-5000 lux, 5 days", "result": 1.96, "unit": "%"},
      {"measurement": "optical stability (in words)", "setting": "[2]; 4500-5000 lux, 5 days", "result": "most significant"}
    ]},
    {"smiles": "CCCc1cccc(=O)c(O)c1", "note": "[magnesium 7-oxo-3-propylcyclohepta-1,3,5-trienolate]", "values": [
      {"measurement": "thermal stability (in words)", "setting": "[1]", "result": "highest thermal stability"}
    ]},
    {"smiles": "CCCc1cccc(=O)c([O-])c1.[K+]", "note": "[potassium 7-oxo-3-propylcyclohepta-1,3,5-trienolate]", "values": [
      {"measurement": "Initial content (%)", "setting": "[1]", "result": 2.0, "unit": "%"},
      {"measurement": "Residual content at 100° C. for 20 h (%)", "setting": "[1]", "result": 1.43, "unit": "%"},
      {"measurement": "Residual content at 100° C. for 40 h (%)", "setting": "[1]", "result": 1.13, "unit": "%"},
      {"measurement": "Initial content (%)", "setting": "[2]", "result": 2.0, "unit": "%"},
      {"measurement": "Residual content of 5 days later (%)", "setting": "[2]; 4500-5000 lux, 5 days", "result": 0.17, "unit": "%"}
    ]},
    {"smiles": "CCCc1cccc(=O)c([O-])c1.[Na+]", "note": "[sodium 7-oxo-3-propylcyclohepta-1,3,5-trienolate]", "values": [
      {"measurement": "Initial content (%)", "setting": "[1]", "result": 2.0, "unit": "%"},
      {"measurement": "Residual content at 100° C. for 20 h (%)", "setting": "[1]", "result": 1.31, "unit": "%"},
      {"measurement": "Residual content at 100° C. for 40 h (%)", "setting": "[1]", "result": 1.11, "unit": "%"},
      {"measurement": "Initial content (%)", "setting": "[2]", "result": 2.0, "unit": "%"},
      {"measurement": "Residual content of 5 days later (%)", "setting": "[2]; 4500-5000 lux, 5 days", "result": 0.05, "unit": "%"}
    ]}
  ]
}
